Target: T1, β-secretase (BACE) (Homo sapiens, UniProt P56817)
T1 construct: purchased Panvera
Assay: BACE FS1 % Inhibition Assay
Type: biochemical
How it was run: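 Percent inhibition per compound concentration was referenced to vehicle-treated enzyme and no-enzyme wells. Enzyme at a 4 μg/mL working stock plus compound was mixed for 20 min at room temperature before the FS1 substrate (300 μg/mL working stock) was added for a 1 h room-temperature reaction.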

T1 sequence (P56817 46-501): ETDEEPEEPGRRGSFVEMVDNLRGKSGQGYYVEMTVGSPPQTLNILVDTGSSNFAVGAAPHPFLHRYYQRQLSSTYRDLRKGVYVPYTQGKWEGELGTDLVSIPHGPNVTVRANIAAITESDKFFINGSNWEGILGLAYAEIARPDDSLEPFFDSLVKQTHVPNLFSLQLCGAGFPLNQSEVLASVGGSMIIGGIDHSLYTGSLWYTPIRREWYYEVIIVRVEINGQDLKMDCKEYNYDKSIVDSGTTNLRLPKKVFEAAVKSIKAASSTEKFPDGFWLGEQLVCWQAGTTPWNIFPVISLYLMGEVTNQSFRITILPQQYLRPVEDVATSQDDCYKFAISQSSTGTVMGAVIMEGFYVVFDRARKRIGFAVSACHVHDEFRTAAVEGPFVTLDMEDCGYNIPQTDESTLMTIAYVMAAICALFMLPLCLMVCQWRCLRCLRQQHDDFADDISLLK

SMILES	% Inhibition (FS) (0.3 μM test compound) [%]	% Inhibition (FS) (1 μM test compound) [%]	% Inhibition (FS) (3 μM test compound) [%]	% Inhibition (FS) (0.3 μM compound, FS1 substrate) [%]	% Inhibition (FS) (1 μM compound, FS1 substrate) [%]	% Inhibition (FS) (3 μM compound, FS1 substrate) [%]	% Inhibition (FS) (10 μM test compound) [%]
NC1=Nc2ccc(Oc3ccccc3)cc2CN1CC1CCN(C(=O)C23CC4CC(CC(C4)C2)C3)CC1 [Compound 527]	<30	<30	51	–	–	–	–
NC1=Nc2ccc(-c3ccc(Cl)cc3)cc2CN1CCNC(=O)C1CCCCC1 [Compound 626]	<30	<30	56	–	–	–	–
CC(C)(C)C(=O)NCCN1Cc2cc(-c3cnc4ccccc4c3)ccc2N=C1N [Compound 674]	–	–	–	36	<30	41	–
CN(C(=O)c1cccc(CN2Cc3cc(-c4cccc(C(=O)O)c4)ccc3N=C2N)c1)C1CCCCC1 [Compound 163]	<30	33	<30	–	–	–	–
CC(C)Oc1ccccc1Oc1ccc2c(c1)CN(Cc1cccc(C(=O)N(C)C3CCCCC3)c1)C(N)=N2 [Compound 478]	<30	<30	46	–	–	–	–
CN(C(=O)CCC(c1ccc(-c2ccccc2)cc1)N1Cc2cc(Oc3ccccc3)ccc2N=C1N)C1CCCCC1 (centres unmarked) [Compound 420]	<30	<30	53	–	–	–	–
C=CCc1cccc(OC)c1Oc1ccc2c(c1)CN(Cc1cccc(C(=O)N(C)C3CCCCC3)c1)C(N)=N2 [Compound 481]	<30	<30	32	–	–	–	–
CCCC=Cc1ccc2c(c1)CN(CCNC(=O)c1cc(C)oc1C)C(N)=N2 [Compound 587]	<30	<30	<30	–	–	–	–
COc1ccc(-c2ccc3c(c2)CN(C(CCC(=O)N(C)C2CCCCC2)C2CCCCC2)C(N)=N3)cc1 (centres unmarked) [Compound 226]	<30	<30	54	–	–	–	–
CC(=O)N1CCC(C(=O)NCCN2Cc3cc(-c4ccccc4Cl)ccc3N=C2N)CC1 [Compound 691]	–	–	–	<30	<30	51	–
CCCC(=O)NCCN1Cc2cc(-c3ccccc3F)ccc2N=C1N [Compound 645]	67	57	91	–	–	–	–
CN(C(=O)c1cccc(CN2Cc3cc(-c4ccc(C(N)=O)cc4)ccc3N=C2N)c1)C1CCCCC1 [Compound 162]	<30	<30	<30	–	–	–	–
CC1CCC(C(=O)NCCN2Cc3cc(Oc4ccccc4)ccc3N=C2N)CC1 (centres unmarked) [Compound 191]	<30	46	88	–	–	–	–
CN(C)c1ccc(Nc2ccc3c(c2)CN(Cc2cccc(C(=O)N(C)C4CCCCC4)c2)C(N)=N3)cc1 [Compound 438]	<30	<30	<30	–	–	–	–
CCCC(CCCC(=O)NC1CCCCCC1)N1Cc2cc(Oc3ccccc3)ccc2N=C1N (centres unmarked) [Compound 137]	–	–	82	–	–	–	107
CC(=O)c1cccc(-c2ccc3c(c2)CN(CCNC(=O)CC2CCCC2)C(N)=N3)c1 [Compound 582]	<30	<30	<30	–	–	–	–
CC(C)(C)OC(=O)N1CCC(CN2Cc3cc(Oc4ccccc4)ccc3N=C2N)CC1 [Compound 509]	<30	<30	41	–	–	–	–
NC1=Nc2ccc(Oc3ccccc3)cc2CN1[C@@H](CCC(=O)N[C@@H](COCc1ccccc1)C(=O)O)C1CCOCC1 [Compound 782]	–	–	–	104	107	113	–
CCC(c1cccc(C(=O)N(C2CCCCC2)C2CCCCC2)c1)N1Cc2cc(Oc3ccccc3)ccc2N=C1N (centres unmarked) [Compound 419]	38	64	109	–	–	–	–
COc1ccc(C)cc1Oc1ccc2c(c1)CN(Cc1cccc(C(=O)N(C)C3CCCCC3)c1)C(N)=N2 [Compound 467]	<30	<30	<30	–	–	–	–

SMILES	% Inhibition (FS) (0.3 μM test compound) [%]	% Inhibition (FS) (1 μM test compound) [%]	% Inhibition (FS) (3 μM test compound) [%]	% Inhibition (FS) (0.3 μM compound, FS1 substrate) [%]	% Inhibition (FS) (1 μM compound, FS1 substrate) [%]	% Inhibition (FS) (3 μM compound, FS1 substrate) [%]	% Inhibition (FS) (10 μM test compound) [%]
Cc1ccccc1-c1ccc2c(c1)CN(CCNC(=O)CC(C)C(F)(F)F)C(N)=N2 (centres unmarked) [Compound 679]	–	–	–	78	99	–	–
CN(C(=O)CCC(C1CCCCC1)N1Cc2cc(Oc3ccccc3)ccc2N=C1N)C1(C(=O)O)CCCCC1 (centres unmarked) [Compound 741]	–	–	–	−48	−38	−25	–
CN(C(=O)c1cccc(CN2Cc3cc(Oc4cccc(-c5ccc6ccccc6n5)c4)ccc3N=C2N)c1)C1CCCCC1 [Compound 473]	<30	<30	<30	–	–	–	–
NC1=Nc2ccc(-c3cnc4ccccc4c3)cc2CN1CCNC(=O)C1CCC1 [Compound 670]	–	–	–	<30	<30	44	–
CCCCC(CC)C(=O)NCCN1Cc2cc(-c3cnc4ccccc4c3)ccc2N=C1N (centres unmarked) [Compound 676]	–	–	–	33	<30	44	–
COc1cccc(OC)c1Oc1ccc2c(c1)CN(CCC(=O)NC1C3CC4CC(C3)CC1C4)C(N)=N2 (centres unmarked) [Compound 465]	<30	<30	<30	–	–	–	–
NC1=Nc2ccc(-c3ccccc3Cl)cc2CN1CCNC(=O)C12CC3CC(CC(C3)C1)C2 [Compound 651]	<30	51	96	–	–	–	–
CC(C)N(C(=O)CCN1Cc2cc(Oc3ccccc3)ccc2N=C1N)C(C)C [Compound 181]	<30	<30	32	–	–	–	–
CN(C(=O)c1cccc(CN2Cc3cc(Oc4ccccc4-c4ccccc4)ccc3N=C2N)c1)C1CCCCC1 [Compound 234]	<30	57	43	–	–	–	–
NC1=Nc2ccc(Oc3ccccc3)cc2CN1Cc1cccc(CNC(=O)C(F)(F)F)c1 [Compound 307]	<30	<30	<30	–	–	–	–
CN(CC(=O)O)C(=O)CCC(C1CCCCC1)N1Cc2cc(Oc3ccccc3)ccc2N=C1N (centres unmarked) [Compound 767]	–	–	–	<30	71	–	–
COc1cccc(C(=O)NCCN2Cc3cc(Oc4ccccc4)ccc3N=C2N)c1 [Compound 217]	<30	<30	56	–	–	–	–
CN(C(=O)c1cccc(CN2Cc3cc(-c4ccccc4-c4ccccc4)ccc3N=C2N)c1)C1CCCCC1 [Compound 321]	−33	<30	<30	–	–	–	–
Cc1ccc(C(CCC(=O)N(C)C2CCCCC2)N2Cc3cc(Oc4ccccc4)ccc3N=C2N)cc1 (centres unmarked) [Compound 421]	<30	71	111	–	–	–	–
COC(=O)Cc1cccc(CN(C)C(=O)CCC(C2CCCCC2)N2Cc3cc(Oc4ccccc4)ccc3N=C2N)c1 (centres unmarked) [Compound 775]	–	–	–	<30	62	–	–
NC1=Nc2ccc(Oc3ccccc3)cc2CN1Cc1cccc(C(=O)NCCc2ccc(S(N)(=O)=O)cc2)c1 [Compound 188]	<30	<30	<30	–	–	–	–
COc1ccccc1Oc1ccc2c(c1)CN(Cc1cccc(C(=O)N(C)C3CCCCC3)c1)C(N)=N2 [Compound 232]	<30	<30	31	–	–	–	–
CN(C(=O)c1cccc(CN2Cc3cc(-c4ccccc4OCc4ccccc4)ccc3N=C2N)c1)C1CCCCC1 [Compound 327]	<30	<30	48	–	–	–	–
Cc1cc(C)cc(Oc2ccc3c(c2)CN(Cc2cccc(C(=O)N(C)C4CCCCC4)c2)C(N)=N3)c1 [Compound 228]	<30	49	40	–	–	–	–
NC1=Nc2ccc(-c3ccccc3-c3ccccc3)cc2CN1CCNC(=O)C1CCCCC1 [Compound 544]	32	<30	51	–	–	–	–

From patent US8426429B2, “2-amino-quinazoline derivatives useful as inhibitors of β-secretase (BACE)” (Jansssen Pharmaceutica N.V., priority 2004, dated 2013)
